Assay results taken from patent publication US8168651B2, “Protein kinase modulators” (Cylene Pharmaceuticals, Inc., priority 2008, dated 2012).
Each block holds one compound with its values, some of them ahead of it.

How the values were obtained:
[1] = tested on: MiaPaca human pancreatic carcinoma cells; experiment: Cell-proliferation assay using Alamar Blue dye; assay type: cell-based; conditions: MIA PaCa-2, Table 45
Method: (§1) A representative cell-proliferation assay protocol using Alamar Blue dye (stored at 4° C., use 20 ul per well) is described hereafter.
(§2) • a. Split and trypsinize cells. • b. Count cells using hemocytometer. • c. Plate 4,000-5,000 cells per well in 100 μl of medium and seed into a 96-well plate according to the following plate layout. Add cell culture medium only to wells B10 to B12. Wells B1 to B9 have cells but no compound added.
(§3) • d. Add 100 μl of 2× drug dilution to each well in a concentration shown in the plate layout above. At the same time, add 100 μl of media into the control wells (wells B10 to B12). Total volume is 200 μl/well. • e. Incubate four (4) days at 37° C., 5% CO2 in a humidified incubator. • f. Add 20 μl Alamar Blue reagent to each well. • g. Incubate for four (4) hours at 37° C., 5% CO2 in a humidified incubator. • h. Record fluorescence at an excitation wavelength of 544 nm and emission wavelength of 590 nm using a microplate reader.
(§4) In the assays, cells are cultured with a test compound for approximately four days, the dye then is added to the cells and fluorescence of […] dye is detected after approximately four hours. Different types of cells can be utilized in the assays (e.g., HCT-116 human colorectal carcinoma cells, PC-3 human prostatic cancer cells and MiaPaca human pancreatic carcinoma cells). Anti-proliferative effects of representative compounds are provided hereafter

recombinant human PIM1 = recombinant human PIM1 (Homo sapiens (Human), UniProt P11309); experiment: PIM-1 kinase activity in cell-free in vitro assay; assay type: biochemical; conditions: Table 45
Sequence of recombinant human PIM1 (P11309 whole entry): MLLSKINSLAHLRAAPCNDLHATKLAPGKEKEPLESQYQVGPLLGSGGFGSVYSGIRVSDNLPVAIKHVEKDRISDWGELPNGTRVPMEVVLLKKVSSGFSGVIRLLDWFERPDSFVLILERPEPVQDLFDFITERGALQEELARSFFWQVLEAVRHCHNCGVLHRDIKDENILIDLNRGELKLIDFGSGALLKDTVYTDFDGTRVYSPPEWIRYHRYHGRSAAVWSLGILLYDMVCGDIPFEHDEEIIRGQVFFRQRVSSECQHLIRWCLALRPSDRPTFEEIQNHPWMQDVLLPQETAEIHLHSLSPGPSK

K-562 = experiment: Cell proliferation modulatory activity, K-562; assay type: cell-based; conditions: Homo sapiens, K562; Table 45; read-out: K-562 IC50
MV-4-11 = experiment: Cell proliferation modulatory activity, MV-4-11; assay type: cell-based; conditions: Homo sapiens, MV4-11; Table 45; read-out: MV-4-11 IC50
PIM2 = PIM2 (Homo sapiens (Human), UniProt Q9P1W9); experiment: PIM2 IC50; assay type: biochemical; conditions: Table 45
Sequence of PIM2 (Q9P1W9 whole entry): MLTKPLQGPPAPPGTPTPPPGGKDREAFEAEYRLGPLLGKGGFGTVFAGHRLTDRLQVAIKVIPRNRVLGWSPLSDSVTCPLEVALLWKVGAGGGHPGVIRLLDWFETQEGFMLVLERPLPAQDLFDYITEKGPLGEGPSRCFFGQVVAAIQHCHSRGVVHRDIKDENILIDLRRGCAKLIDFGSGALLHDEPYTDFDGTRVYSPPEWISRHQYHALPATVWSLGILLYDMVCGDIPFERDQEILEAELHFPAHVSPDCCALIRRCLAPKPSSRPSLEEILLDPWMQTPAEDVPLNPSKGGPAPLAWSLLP

phosphoBAD ser 112 = phosphoBAD ser 112 IC50; assay type: cell-based; conditions: read-out: phosphoBAD ser 112 IC50; Table 45
MDAMB231 [2] = experiment: MDAMB231 IC50; assay type: cell-based; conditions: Homo sapiens, MDA-MB-231; Table 45
MDAMB231 [3] = experiment: Cell-proliferation assay using Alamar Blue dye; assay type: cell-based; conditions: Homo sapiens, MDA-MB-231
Method: as §1
96-Well Plate Setup and Compound Treatment
as §2, §3, §4

Compound: COCCNc1nc2c(-c3nc[nH]n3)cccc2c2cnccc12
- IC50 [1]: < 5 µM
- IC50 (recombinant human PIM1): < 0.1 µM
- IC50 (K-562): < 10 µM
- IC50 (MV-4-11): < 0.1 µM
- IC50 (PIM2): < 0.5 µM
- IC50 (phosphoBAD ser 112): < 0.1 µM
- IC50 (MDAMB231 [2]): < 10 µM

Compound: OCCNc1nc2c(-c3nnc[nH]3)cccc2c2cnccc12
- IC50 [1]: < 0.5 µM
- IC50 (recombinant human PIM1): < 0.5 µM
- IC50 (K-562): > 10 µM
- IC50 (MV-4-11): < 0.1 µM
- IC50 (PIM2): < 1 µM
- IC50 (phosphoBAD ser 112): < 0.5 µM
- IC50 (MDAMB231 [2]): > 10 µM

Compound: COCCOc1ccc(Nc2nc3c(-c4nnc[nH]4)cccc3c3cnccc23)cc1
- IC50 [1]: < 1 µM
- IC50 (recombinant human PIM1): < 0.5 µM
- IC50 (K-562): > 10 µM
- IC50 (MV-4-11): < 0.1 µM
- IC50 (PIM2): < 1 µM
- IC50 (phosphoBAD ser 112): < 0.5 µM
- IC50 (MDAMB231 [2]): < 10 µM

Compound: FC(F)(F)Oc1cccc(Nc2nc3c(-c4nnc[nH]4)cccc3c3cnccc23)c1
- IC50 [1]: < 5 µM
- IC50 (recombinant human PIM1): < 0.5 µM
- IC50 (K-562): < 0.5 µM
- IC50 (MV-4-11): < 0.5 µM
- IC50 (PIM2): < 1 µM
- IC50 (phosphoBAD ser 112): < 5 µM
- IC50 (MDAMB231 [2]): > 10 µM

Compound: O=C(O)c1ccc2c(c1)nc(NCc1ccccc1)c1ccncc12 [drawing 1000]
- IC50 (MDAMB231 [3]): 38 µM

Compound: COC(=O)c1ccc2c(c1)nc(NC1CC1)c1nc(SCc3ccccc3Cl)ncc12 [drawing 1044]
- IC50 (MDAMB231 [3]): 7.23 µM

Compound: CCOc1ncc2c(n1)c(NC1CC1)nc1cc(C(=O)O)ccc12 [drawing 1048]
- IC50 (MDAMB231 [3]): > 50 µM

Compound: O=C(O)c1ccc2c(c1)nc(Nc1cncc(C3CC3)c1)c1ccncc12 [drawing 1052]
- IC50 (MDAMB231 [3]): > 50 µM

Compound: O=C(O)c1ccc2c(c1)nc(N1CCOCC1)c1nc(NC3CC3)ncc12 [drawing 1060]
- IC50 (MDAMB231 [3]): > 50 µM

Compound: O=C(O)c1ccc2c(c1)nc(NC1CC1)c1ccncc12 [drawing 1072]
- IC50 (MDAMB231 [3]): > 50 µM

Compound: COC(=O)c1ccc2c(c1)nc(NC1CC1)c1nc(SC)ncc12 [drawing 1074]
- IC50 (MDAMB231 [3]): 34.2 µM

The next lines start with the values.

- IC50 (MDAMB231 [3]): 11.8 µM
Compound: C#Cc1cccc(Nc2nc3cc(C(=O)O)ccc3c3cnccc23)c1 [drawing 998]

- IC50 (MDAMB231 [3]): 8.38 µM
Compound: C#Cc1cccc(Nc2nc3cc(C(=O)O)ccc3c3cnc(NCC4CCCO4)nc23)c1 (stereo not shown) [drawing 1038]

- IC50 (MDAMB231 [3]): 2.63 µM
Compound: C#Cc1cccc(Nc2nc3cc(C(=O)O)ccc3c3cnc(NCC4CC4)nc23)c1 [drawing 1039]

- IC50 (MDAMB231 [3]): > 50 µM
Compound: O=C(O)c1ccc2c(c1)nc(NC1CC1)c1nc(SCc3ccccc3Cl)ncc12 [drawing 1047]

- IC50 (MDAMB231 [3]): 7.22 µM
Compound: O=C(O)c1ccc2c(c1)nc(NC1CC1)c1nc(NC3CC3)ncc12 [drawing 1049]

- IC50 (MDAMB231 [3]): 23.5 µM
Compound: O=C(O)c1ccc2c(c1)nc(NC1CC1)c1nc(NCc3ccccc3)ncc12 [drawing 1050]

- IC50 (MDAMB231 [3]): 6.88 µM
Compound: O=C(O)c1ccc2c(c1)nc(NC1CC1)c1nc(Nc3ccccc3)ncc12 [drawing 1051]

- IC50 (MDAMB231 [3]): > 50 µM
Compound: O=C(O)c1ccc2c(c1)nc(NCc1cccnc1)c1nc(NC3CC3)ncc12 [drawing 1058]

- IC50 (MDAMB231 [3]): > 50 µM
Compound: O=C(O)c1ccc2c(c1)nc(NCc1ccccc1)c1nc(NC3CC3)ncc12 [drawing 1059]

- IC50 (MDAMB231 [3]): 9.66 µM
Compound: CC1CCCCN1CCCNc1ncc2c(n1)c(Nc1ccc(F)c(Cl)c1)nc1cc(C(=O)O)ccc12 (stereo not shown) [drawing 1062]

- IC50 (MDAMB231 [3]): > 50 µM
Compound: Cc1cc(Nc2ncc3c(n2)c(Nc2ccc(F)c(Cl)c2)nc2cc(C(=O)O)ccc23)[nH]n1 [drawing 1068]

- IC50 (MDAMB231 [3]): > 50 µM
Compound: CN(C)CCNc1nc2cc(C(=O)O)ccc2c2cnc(NC3CC3)nc12 [drawing 1075]

- IC50 (MDAMB231 [3]): > 50 µM
Compound: Nc1ncc2c(n1)c(NC1CC1)nc1cc(C(=O)O)ccc12 [drawing 1077]

- IC50 (MDAMB231 [3]): 4.36 µM
Compound: CCCNc1ncc2c(n1)c(NC1CC1)nc1cc(C(=O)O)ccc12 [drawing 1078]
